Experiment [1] deals with IL-1β release upon NLRP3 activation in peripheral blood mononuclear cells (PBMC). Briefly: PBMC IC50 determination assay. The conditions noted are these: sodium salts tested, LPS 1 μg/ml 3 h, compound 30 min, ATP 5 mM 1 h, IL-1β by HTRF. The experiment is classed as cell-based. The method, then:
The compounds of the present disclosure were tested for their inhibitory activity against IL-1β release upon NLRP3 activation in peripheral blood mononuclear cells (PBMC).
PBMC were isolated from buffy coats by density gradient centrifugation on Histopaque-1077 (Sigma, cat no. 10771). Isolated cells were seeded into the wells (280,000 cells/well) of a 96-well plate and incubated for 3 h with lipopolysaccharide (LPS, 1 μg/ml diluted 1000× from a 1 mg/ml stock solution). The compounds of the present disclosure were added (a single compound per well) and the cells were incubated for 30 min. Next, the cells were stimulated with ATP (5 mM final concentration diluted 20× from a 100 mM stock solution) for 1 h and the cell culture media from the wells were collected for further analysis.
The release of IL-1β into the media was determined by quantitative detection of IL-1β in the media using HTRF®, CisBio cat. No. 62HIL1BPEH. Briefly, cell culture supernatant were dispensed directly into the assay plate containing antibodies labelled with the HTRF® donor and acceptor. A microplate spectrophotometer (BMG) was used to detect signals at 655 nm and 620 nm. The detection range of IL-1β HTRF® was 39-6500 pg/ml.

Experiment [2] relates to IL-1β release upon NLRP3 activation in human whole blood. The experiment in a line: Whole blood (WB) assay. The experiment is classed as cell-based. The conditions noted are these: sodium salts tested, LPS 1 μg/ml 3 h, compound 30 min, ATP 5 mM 1 h, IL-1β by HTRF. The method, then:
The compounds of the present disclosure were tested for their inhibitory activity against IL-1β release upon NLRP3 activation in human whole blood.
Whole blood was drawn from single healthy donors and treated with sodium heparin anticoagulant. Blood was diluted with cell culture media at a 9:5 ratio, seeded in a 96-well plate and incubated for 3 h with lipopolysaccharide (LPS, 1 μg/ml final concentration diluted 1000× from a 1 mg/ml stock solution). The compounds of the present disclosure were added (a single compound concentration per well) and the blood was incubated for 30 min. Next, the blood was stimulated with ATP (5 mM final concentration diluted 20× from a 100 mM stock solution) for 1 h and the cell culture media from the wells were collected for further analysis.
The release of IL-1β into the media was determined by quantitative detection of IL-1β in the media using HTRF®, CisBio cat. No. 62HIL1BPEH. Briefly, cell culture supernatant were diluted as appropriate to bring IL-1β levels within the HTRF® detection range (36-6500 pg/ml) and subsequently dispensed into the assay plate containing antibodies labelled with the HTRF® donor and acceptor. A microplate spectrophotometer (BMG) was used to detect signals at […] and 620 nm.

For `COCCN(c1cnn(C)c1)S(=O)(=O)NC(=O)Nc1c2c(cc3c1CCC3)CCC2` [Compound 1, 1-(1,2,3,5,6,7-Hexahydro-s-indacen-4-yl)-3-[(2-methoxyethyl)(1-methyl-1H-pyrazol-4-yl)sulfamoyl]urea], the 50% inhibitory concentration (IC50) was under 100 nM in experiment [1] and 1000 to 3000 nM in experiment [2].

For `COCC(COC)N(c1cnn(C)c1)S(=O)(=O)NC(=O)Nc1c2c(cc3c1CCC3)CCC2` [Compound 2, 3-[(1,3-Dimethoxypropan-2-yl)(1-methyl-1H-pyrazol-4-yl)sulfamoyl]-1-(1,2,3,5,6,7-hexahydro-s-indacen-4-yl)urea], the half-maximal inhibitory concentration (IC50) was in the range of 100 to 500 nM in experiment [1] and 1000 to 3000 nM in experiment [2].

Regarding `Cn1cc(N(CC(C)(C)O)S(=O)(=O)NC(=O)Nc2c3c(cc4c2CCC4)CCC3)cn1` [Compound 3, 1-(1,2,3,5,6,7-Hexahydro-s-indacen-4-yl)-3-[(2-hydroxy-2-methylpropyl)(1-methyl-1H-pyrazol-4-yl)sulfamoyl]urea], the IC50 lay within 100 to 500 nM in experiment [1] and 1000 to 3000 nM in experiment [2].

For `Cn1cc(N(CCC(C)(C)O)S(=O)(=O)NC(=O)Nc2c3c(cc4c2CCC4)CCC3)cn1` [Compound 4, 1-(1,2,3,5,6,7-Hexahydro-s-indacen-4-yl)-3-[(3-hydroxy-3-methylbutyl)(1-methyl-1H-pyrazol-4-yl)sulfamoyl]urea], the values for the IC50 in experiment [1] and in experiment [2] were under 100 nM and 1000 to 3000 nM, respectively.

For the compound `CN(C)C1CCC(N(c2cnn(C)c2)S(=O)(=O)NC(=O)Nc2c3c(cc4c2CCC4)CCC3)C1` (stereo not shown) [Compound 5, 1-{[3-(Dimethylamino)cyclopentyl](1-methyl-1H-pyrazol-4-yl)sulfamoyl}-3-(1,2,3,5,6,7-hexahydro-s-indacen-4-yl)urea], the values for the IC50 in experiment [1] and in experiment [2] were 100 to 500 nM and 3000 to 10000 nM, respectively.

With `CN(C)C1CC(N(c2cnn(C)c2)S(=O)(=O)NC(=O)Nc2c3c(cc4c2CCC4)CCC3)C1` (stereo not shown) [Compound 6, 3-{[3-(Dimethylamino)cyclobutyl](1-methyl-1H-pyrazol-4-yl)sulfamoyl}-1-(1,2,3,5,6,7-hexahydro-s-indacen-4-yl)urea], the IC50 is under 100 nM in experiment [1] and 1000 to 3000 nM in experiment [2].

As to `COCCCN(c1cnn(C)c1)S(=O)(=O)NC(=O)Nc1c2c(cc3c1CCC3)CCC2` [Compound 7, 1-(1,2,3,5,6,7-Hexahydro-s-indacen-4-yl)-3-[(3-methoxypropyl)(1-methyl-1H-pyrazol-4-yl)sulfamoyl]urea], the IC50 in experiment [1] lay within 100 to 500 nM; in experiment [2] it was 3000 to 10000 nM.

For the compound `CN(C)CCN(c1cnn(C)c1)S(=O)(=O)NC(=O)Nc1c2c(cc3c1CCC3)CCC2` [Compound 8, 3-{[2-(Dimethylamino)ethyl](1-methyl-1H-pyrazol-4-yl)sulfamoyl}-1-(1,2,3,5,6,7-hexahydro-s-indacen-4-yl)urea], the IC50 is under 100 nM in experiment [1] and under 1000 nM in experiment [2].

As to `CC(C)n1cc(N(CCN(C)C)S(=O)(=O)NC(=O)Nc2c3c(cc4c2CCC4)CCC3)cn1` [Compound 9, 1-{[2-(Dimethylamino)ethyl][1-(propan-2-yl)-1H-pyrazol-4-yl]sulfamoyl}-3-(1,2,3,5,6,7-hexahydro-s-indacen-4-yl)urea], the IC50 in experiment [1] was under 100 nM; in experiment [2] it was under 1000 nM.

With `CN(C)CCCN(c1cnn(C)c1)S(=O)(=O)NC(=O)Nc1c2c(cc3c1CCC3)CCC2` [Compound 10, 3-{[3-(Dimethylamino)propyl](1-methyl-1H-pyrazol-4-yl)sulfamoyl}-1-(1,2,3,5,6,7-hexahydro-s-indacen-4-yl)urea], the IC50 in experiment [1] was 100 to 500 nM; in experiment [2] it was 10000 to 20000 nM.

On to `CN(CCN(c1cnn(C)c1)S(=O)(=O)NC(=O)Nc1c2c(cc3c1CCC3)CCC2)C1COC1` [Compound 11, 1-(1,2,3,5,6,7-Hexahydro-s-indacen-4-yl)-3-({2-[methyl(oxetan-3-yl)amino]-ethyl}(1-methyl-1H-pyrazol-4-yl)sulfamoyl)urea], for which the IC50 is under 100 nM in experiment [1] and 1000 to 3000 nM in experiment [2].

These data come from US12054461B2, “Sulfonylurea derivatives and uses thereof” (NodThera Limited, priority 2019, dated 2024).
